From PubChem BioAssay AID1963861 (Molecular Pharmacology Branch, DTP, NCI, 2024)
pIC50: −log10 of the molar value.

Test system: 885724-159-R-J1-PDC KRAS PDC multicell spheroid viability
Assay: Anticancer human tumor 885724-159-R-J1-PDC patient-derived pancreatic adenocarcinoma cell line growth inhibition [KRAS2]
Details: for viability, T/C: stronger effect = lower value
Source text: Multicellular complex tumor spheroid response to RAS pathway inhibitors in combination with a targeted agents in patient-derived cell lines with oncogenic KRAS variants from multiple cancer types
A high-throughput screen of multi-cell type tumor spheroids was designed to identify active combinations of targeted small molecules and KRAS pathway inhibitors. Complex spheroids include a stromal component modeled by human endothelial cells (HUVEC) and fibroblasts modeled by human mesenchymal stem cells (MSCs). The concentration ranges selected for each drug and investigational agent were based upon clinically achievable concentrations if the clinical Cmax of the agent was known.
Compounds. The drugs and investigational agents: BI-3406 (NSC825286), BAY-293 (NSC824723), batoprotafib (TNO155; NSC825523), sotorasib (AMG 510; NSC818433), MRTX1257 (NSC819558), elimusertib (BAY 1895344; NSC800525), molibresib (GSK525762; NSC774829), temuterkib (LY3214996; NSC803410), venetoclax (NSC766270), alisertib (NSC759677), olaparib (NSC753686), talazoparib (NSC767125), erdafitinib (NSC781556), ipatasertib (NSC767898), cabozantinib (NSC761068), nintedanib (NSC756659), abemaciclib (NSC768073), docetaxel (NSC628503), trametinib (NSC758246), and sapanisertib (NSC764658) were obtained from the National Cancer Institute (NCI) Developmental Therapeutics Program Chemical Repository. The FDA-approved anticancer drug set is available from the Developmental Therapeutics Program. […] The stock solutions were prepared in dimethyl sulfoxide (DMSO, Sigma-Aldrich, St. Louis, MO, cat. D2650) at 800-fold the tested concentration and stored at -70 degrees C prior to their use. All drugs and investigational agents were tested over a range starting from a high concentration at or near the clinical Cmax and decreasing in half-log increments. If the clinical Cmax for an agent had not been determined, the highest concentration tested was 10 microM.
Cell Culture. All cells were maintained in an incubator at 37 degrees C and 5% CO2 with 95% humidity. The PDC lines were cultured according to standard operating procedures established by the NCI PDMR (https://pdmr.cancer.gov/sops/default.htm). Briefly, all PDCs were thawed and cultured in Matrigel-coated flasks prepared with a working solution of 1X Ham's F-12 nutrient mix, without supplementation (Invitrogen, Waltham, MA, cat. 11765054), 100 U/mL penicillin-streptomycin (Invitrogen, cat. 15140122), and 2.5% Matrigel (Corning Inc., Corning, NY, cat. 354248) for the first three passages. All PDCs were cultured in complete DMEM/F-12 media containing advanced DMEM/F-12 (Invitrogen, cat. 12634028), 4.9% defined fetal bovine serum, heat inactivated (HyClone Laboratories Inc., Logan, UT, cat. SH30070.03HI), 389 ng/mL hydrocortisone (Sigma-Aldrich, cat. H4001), 9.7 ng/mL human EGF recombinant protein (Invitrogen, cat. PHG0313), 23.4 microg/mL adenine (Sigma-Aldrich, cat. A2786), 97.3 U/mL penicillin-streptomycin (Invitrogen, cat. 15140122), 1.9 mM L-glutamine (Invitrogen, cat. 25030081), and 9.7 microM Y-27632 dihydrochloride (Tocris Bioscience, Bristol, United Kingdom, cat. 1254). The PDCs were cultured in complete DMEM/F12 media without 9.7 microM Y-27632 dihydrochloride for at least two passages prior to the screen. The established cell line HOP-62 was cultured in RPMI 1640 medium, HEPES (Invitrogen, cat. 22400105) with 10% defined fetal bovine serum (HyClone Laboratories Inc., cat. SH30070.03) and 2 mM L-glutamine (Invitrogen, cat. 25030081). The pooled donor HUVEC were cultured in endothelial cell growth medium 2 (PromoCell, Heidelberg, Germany, cat. C-22011) and the hMSC were cultured in mesenchymal stem cell growth medium 2 (PromoCell, cat. C-28009). For all experiments, HUVEC and hMSC were used at passages </=5, while the malignant cell lines were used at passages </=15. […]

[1] = curve of first compound, second compound 0.1 µM
[2] = curve of first compound, second compound 0.316 µM
[3] = curve of first compound, second compound 1 µM
[4] = curve of first compound, second compound 3.16 µM
[5] = curve of first compound, second compound 10 µM
[6] = second compound 0.1 µM, first compound 0.000316 µM
[7] = second compound 0.1 µM, first compound 0.001 µM
[8] = second compound 0.1 µM, first compound 0.00316 µM
[9] = second compound 0.1 µM, first compound 0.01 µM
[10] = second compound 0.1 µM, first compound 0.0316 µM
[11] = second compound 0.316 µM, first compound 0.000316 µM
[12] = second compound 0.316 µM, first compound 0.001 µM
[13] = second compound 0.316 µM, first compound 0.00316 µM
[14] = second compound 0.316 µM, first compound 0.01 µM
[15] = second compound 0.316 µM, first compound 0.0316 µM
[16] = second compound 1 µM, first compound 0.000316 µM
[17] = second compound 1 µM, first compound 0.001 µM
[18] = second compound 1 µM, first compound 0.00316 µM
[19] = second compound 1 µM, first compound 0.01 µM
[20] = second compound 1 µM, first compound 0.0316 µM
[21] = second compound 3.16 µM, first compound 0.000316 µM
[22] = second compound 3.16 µM, first compound 0.001 µM
[23] = second compound 3.16 µM, first compound 0.00316 µM
[24] = second compound 3.16 µM, first compound 0.01 µM
[25] = second compound 3.16 µM, first compound 0.0316 µM
[26] = second compound 10 µM, first compound 0.000316 µM
[27] = second compound 10 µM, first compound 0.001 µM
[28] = second compound 10 µM, first compound 0.00316 µM
[29] = second compound 10 µM, first compound 0.01 µM
[30] = second compound 10 µM, first compound 0.0316 µM
[31] = second compound 0.1 µM, first compound 0.1 µM
[32] = second compound 0.316 µM, first compound 0.1 µM
[33] = second compound 1 µM, first compound 0.1 µM
[34] = second compound 3.16 µM, first compound 0.1 µM
[35] = second compound 10 µM, first compound 0.1 µM
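Note: spheroids exposed to agents for 7 days before readout.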

CC(=O)Nc1cccc(-n2c(=O)n(C3CC3)c(=O)c3c(Nc4ccc(I)cc4F)n(C)c(=O)c(C)c32)c1 + COc1cc2nc(C)nc(NC(C)c3cc(N)cc(C(F)(F)F)c3)c2cc1OC1CCOC1
pIC50 [1]: 9.01
pIC50 [2]: 9.04
pIC50 [3]: 9.07
pIC50 [4]: 9.15
pIC50 [5]: > 10.00
viability, T/C (second compound 0.1 µM, first compound 0.0001 µM): 91%
viability, T/C [6]: 73%
viability, T/C [7]: 48.1%
viability, T/C [8]: 32.7%
viability, T/C [9]: 26.2%
viability, T/C [10]: 17%
viability, T/C (second compound 0.316 µM, first compound 0.0001 µM): 87.2%
viability, T/C [11]: 68.9%
viability, T/C [12]: 46.4%
viability, T/C [13]: 34.3%
viability, T/C [14]: 24.9%
viability, T/C [15]: 17.3%
viability, T/C (second compound 1 µM, first compound 0.0001 µM): 89.8%
viability, T/C [16]: 68.4%
viability, T/C [17]: 46.1%
viability, T/C [18]: 31.6%
viability, T/C [19]: 24.6%
viability, T/C [20]: 17.1%
viability, T/C (second compound 3.16 µM, first compound 0.0001 µM): 74.9%
viability, T/C [21]: 62.8%
viability, T/C [22]: 44.4%
viability, T/C [23]: 27.6%
viability, T/C [24]: 19.1%
viability, T/C [25]: 10.7%
viability, T/C (second compound 10 µM, first compound 0.0001 µM): 34.8%
viability, T/C [26]: 18.5%
viability, T/C [27]: 3.24%
viability, T/C [28]: 0.51%
viability, T/C [29]: 0.67%
viability, T/C [30]: 0.32%

CC(C)NCC(C(=O)N1CCN(c2ncnc3c2C(C)CC3O)CC1)c1ccc(Cl)cc1 (configuration not stated) + CNCc1ccccc1-c1csc(C(C)Nc2nc(C)nc3cc(OC)c(OC)cc23)c1
pIC50 [1]: < 5.00
pIC50 [2]: < 5.00
pIC50 [3]: 5.38
pIC50 [4]: > 7.50
pIC50 [5]: > 7.50
viability, T/C [10]: 87.4%
viability, T/C [31]: 82.9%
viability, T/C (second compound 0.1 µM, first compound 0.316 µM): 76%
viability, T/C (second compound 0.1 µM, first compound 1 µM): 70.8%
viability, T/C (second compound 0.1 µM, first compound 3.16 µM): 76.8%
viability, T/C (second compound 0.1 µM, first compound 10 µM): 57.1%
viability, T/C [15]: 87.4%
viability, T/C [32]: 77.3%
viability, T/C (second compound 0.316 µM, first compound 0.316 µM): 67.7%
viability, T/C (second compound 0.316 µM, first compound 1 µM): 72.7%
viability, T/C (second compound 0.316 µM, first compound 3.16 µM): 78.2%
viability, T/C (second compound 0.316 µM, first compound 10 µM): 53.1%
viability, T/C [20]: 94%
viability, T/C [33]: 76.9%
viability, T/C (second compound 1 µM, first compound 0.316 µM): 64.9%
viability, T/C (second compound 1 µM, first compound 1 µM): 66.3%
viability, T/C (second compound 1 µM, first compound 3.16 µM): 68.8%
viability, T/C (second compound 1 µM, first compound 10 µM): 26.3%
viability, T/C [25]: 1.32%
viability, T/C [34]: 0.9%
viability, T/C (second compound 3.16 µM, first compound 0.316 µM): 1.56%
viability, T/C (second compound 3.16 µM, first compound 1 µM): 0.7%
viability, T/C (second compound 3.16 µM, first compound 3.16 µM): 0.43%
viability, T/C (second compound 3.16 µM, first compound 10 µM): 0.59%
viability, T/C [30]: 0.17%
viability, T/C [35]: 0.16%
viability, T/C (second compound 10 µM, first compound 0.316 µM): 0.17%
viability, T/C (second compound 10 µM, first compound 1 µM): 0.31%
viability, T/C (second compound 10 µM, first compound 3.16 µM): 0.16%
viability, T/C (second compound 10 µM, first compound 10 µM): 0.23%

CN(C)C/C=C/C(=O)Nc1cc2c(Nc3ccc(F)c(Cl)c3)ncnc2cc1O[C@H]1CCOC1 + COc1cc2nc(C)nc(NC(C)c3cc(N)cc(C(F)(F)F)c3)c2cc1OC1CCOC1
pIC50 [1]: < 7.00
pIC50 [2]: < 7.00
pIC50 [3]: < 7.00
pIC50 [4]: < 7.00
pIC50 [5]: < 7.00
viability, T/C [6]: 116%
viability, T/C [7]: 103%
viability, T/C [8]: 97.1%
viability, T/C [9]: 88.9%
viability, T/C [10]: 79.6%
viability, T/C [31]: 69.2%
viability, T/C [11]: 98.7%
viability, T/C [12]: 102%
viability, T/C [13]: 92.9%
viability, T/C [14]: 89%
viability, T/C [15]: 67.3%
viability, T/C [32]: 66.7%
viability, T/C [16]: 96.4%
viability, T/C [17]: 120%
viability, T/C [18]: 110%
viability, T/C [19]: 96%
viability, T/C [20]: 79.1%
viability, T/C [33]: 73.3%
viability, T/C [21]: 88.4%
viability, T/C [22]: 102%
viability, T/C [23]: 80.3%
viability, T/C [24]: 72.5%
viability, T/C [25]: 68%
viability, T/C [34]: 61.8%
viability, T/C [26]: 87.1%
viability, T/C [27]: 85.7%
viability, T/C [28]: 75.2%
viability, T/C [29]: 63.1%
viability, T/C [30]: 60%
viability, T/C [35]: 61.2%

Cn1ncnc1[C@H]1c2n[nH]c(=O)c3cc(F)cc(c23)N[C@@H]1c1ccc(F)cc1
viability, T/C (compound 0.000316 µM): 102% [middle of 5 runs]
viability, T/C (compound 0.001 µM): 102% [middle of 5 runs]
viability, T/C (compound 0.00316 µM): 97.3% [middle of 5 runs]
viability, T/C (compound 0.01 µM): 98.2% [middle of 5 runs]
viability, T/C (compound 0.0316 µM): 96.2% [middle of 5 runs]
viability, T/C (compound 0.1 µM): 91% [middle of 5 runs]
pIC50 (curve of compound): < 7.00
